The source made the active and inactive calls.
Experiments:
[1] = inhibitors of firefly luciferase expression or activity, dose response, H4 neuroglioma cells, luminescence (AID 1990); type: functional, cell-based
[2] = Luminescence Cell-Based Dose Response HTS to Identify Inhibitors of 5'UTR Stem-Loop Driven Prion Protein mRNA Translation in H4 Neuroglioblastoma Cells. [Related pubchem assays: 1827 (Project Summary), 1813 (Primary HTS)]; type: functional
[3] = target: T1, Heat shock factor protein 1 (Mus musculus, UniProt P38532); assay: inhibition of MG132-induced HSE-luciferase signal, confirmation, cell-based, NIH3T3, luminescence, dose retest (AID 2382); type: functional;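 note: NIH3T3 fibroblasts with HSF1-driven luciferase reporter stressed by proteasome inhibitor MG132; luminescence from HSF1-driven luciferase expression after 8 hours of MG132 stress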
T1 sequence (P38532 whole entry): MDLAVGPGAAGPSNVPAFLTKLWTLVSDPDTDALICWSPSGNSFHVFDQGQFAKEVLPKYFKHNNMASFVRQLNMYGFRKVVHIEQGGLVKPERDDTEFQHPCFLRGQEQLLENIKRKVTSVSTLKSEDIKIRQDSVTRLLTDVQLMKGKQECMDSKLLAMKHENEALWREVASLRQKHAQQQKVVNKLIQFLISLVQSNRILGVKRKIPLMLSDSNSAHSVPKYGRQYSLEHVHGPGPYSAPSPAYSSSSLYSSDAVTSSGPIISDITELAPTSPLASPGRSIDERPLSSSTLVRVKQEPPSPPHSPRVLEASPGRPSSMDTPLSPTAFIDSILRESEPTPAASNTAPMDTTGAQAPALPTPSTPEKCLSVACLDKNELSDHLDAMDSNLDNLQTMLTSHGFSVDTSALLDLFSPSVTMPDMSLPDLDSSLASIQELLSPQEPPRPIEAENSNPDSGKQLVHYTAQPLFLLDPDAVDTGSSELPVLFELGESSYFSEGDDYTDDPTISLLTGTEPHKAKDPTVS

[4] = inhibitors of SNCA 5'UTR-driven reporter translation, confirmation, H4 neuroglioma cells, luminescence (AID 1988); type: functional, cell-based
[5] = target: Luciferin 4-monooxygenase (Photinus pyralis, UniProt P08659); assay: firefly luciferase enzyme inhibitors, dose response, biochemical, luminescence (AID 1891)
[6] = Luminescence Cell-Based Dose Confirmation HTS to Identify Inhibitors of Platelet Dense Granule Release. [Related pubchem assays: 1663 (Primary HTS), 1678 (Summary of Project)]; type: functional
[7] = Luminescence-based counterscreen assay for KLF5 inhibitors: dose response cell-based high throughput screening assay to identify cytotoxic compounds using the IEC-6 intestinal epithelial cell line. [Related pubchem assays: 1700 (Primary screen.), 1834 (Confirmation screen.), 1858 (Summary AID.), 1905 (Counterscreen.)]; type: functional
[8] = target: Cytochrome P450 2C9 (Homo sapiens, UniProt P11712); conditions: Potency
[9] = inhibitors of Bluetongue virus cytopathic effect, confirmation, arbovirus, BSR cells (AID 1250); type: functional;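 note: protection from viral cytopathic effect measured as cell viability by ATP luminescence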
[10] = cells
[11] = Luminescence Cell-Based Dose Confirmation HTS to Identify Inhibitors of Polyadenylation.; type: functional
[12] = tested on: Streptococcus sp. 'group A'; assay: growth inhibition of control SK(-) GAS strain, dose response, counter-screen for streptokinase expression inhibitor project, luminescence, kanamycin, BacTiterGlo, confirmation (AID 1900); type: functional, organism-based
[13] = target: T2, Streptokinase A (Streptococcus pyogenes serotype M1, UniProt P10520); assay: S. pyogenes streptokinase expression inhibitors, potency, dose response, plasminogen activation absorbance, OD405 (AID 1914); type: functional, Streptococcus pyogenes M1 GAS;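 note: secreted streptokinase activity via plasminogen activation per viability signal from cell pellet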
T2 sequence (P10520 whole entry): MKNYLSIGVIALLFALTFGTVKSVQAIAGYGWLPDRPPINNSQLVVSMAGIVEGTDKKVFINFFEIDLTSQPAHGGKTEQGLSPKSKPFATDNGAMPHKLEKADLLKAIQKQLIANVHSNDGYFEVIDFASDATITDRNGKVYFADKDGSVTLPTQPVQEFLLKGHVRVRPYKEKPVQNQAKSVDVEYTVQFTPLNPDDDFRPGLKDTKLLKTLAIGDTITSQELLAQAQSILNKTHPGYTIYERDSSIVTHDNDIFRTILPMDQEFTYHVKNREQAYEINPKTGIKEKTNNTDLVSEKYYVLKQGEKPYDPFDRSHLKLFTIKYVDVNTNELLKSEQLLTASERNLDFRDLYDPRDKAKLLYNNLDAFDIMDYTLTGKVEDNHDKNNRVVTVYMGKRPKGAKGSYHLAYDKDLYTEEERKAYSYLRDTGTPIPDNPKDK

[14] = tested on: Streptococcus; assay: Group A Streptococcus viability loss, dose response, counter-screen for streptokinase expression inhibitor project, luminescence, BacTiterGlo (AID 1915); type: functional, organism-based;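 note: potency for reduction of bacterial viability or growth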
[15] = target: X-box-binding protein 1 (Homo sapiens, UniProt P17861); type: functional, Cricetulus griseus;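 note: confirmatory dose-response counter-screen serving a CHOP assay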
[16] = target: Neurotensin receptor type 1 (Homo sapiens, UniProt P30989); type: functional;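 note: Image-based confirmatory dose-response assay measuring agonist activity at NTR1; NTR1-expressing U2OS osteosarcoma cells imaged for beta-arrestin GFP spot formation; agonist potency where compounds increase beta-arrestin recruitment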
[17] = target: Mucolipin-3 (Homo sapiens, UniProt Q8TDD5); assay: Dose response cell-based high-throughput screening assay for agonists of the transient receptor potential channel ML3 (TRPML3). [Related pubchem assays: 1526, 1424, 1448 ]; type: functional
[18] = target: Ion channel NompC (Danio rerio, UniProt Q7T1G6); assay: Fluorescence counterscreen assay for TRPML3 agonists: dose response cell-based high-throughput screening assay to identify agonists of the transient receptor potential channel N1 (TRPN1). [Related pubchem assays: 1526, 1424, 1448 ]; type: functional
[19] = target: Glucose-6-phosphate 1-dehydrogenase (Homo sapiens, UniProt P11413); assay: human G6PD enzyme inhibitors, dose response, selectivity assay for P. falciparum G6PD inhibitor project, biochemical, fluorescence (AID 504792); type: functional
[20] = target: T3, Hexokinase HKDC1 (Homo sapiens, UniProt Q2TB90); assay: HKDC1 hexokinase inhibitors, dose response, biochemical, W721R variant (AID 504729); type: functional
T3 sequence (Q2TB90 whole entry): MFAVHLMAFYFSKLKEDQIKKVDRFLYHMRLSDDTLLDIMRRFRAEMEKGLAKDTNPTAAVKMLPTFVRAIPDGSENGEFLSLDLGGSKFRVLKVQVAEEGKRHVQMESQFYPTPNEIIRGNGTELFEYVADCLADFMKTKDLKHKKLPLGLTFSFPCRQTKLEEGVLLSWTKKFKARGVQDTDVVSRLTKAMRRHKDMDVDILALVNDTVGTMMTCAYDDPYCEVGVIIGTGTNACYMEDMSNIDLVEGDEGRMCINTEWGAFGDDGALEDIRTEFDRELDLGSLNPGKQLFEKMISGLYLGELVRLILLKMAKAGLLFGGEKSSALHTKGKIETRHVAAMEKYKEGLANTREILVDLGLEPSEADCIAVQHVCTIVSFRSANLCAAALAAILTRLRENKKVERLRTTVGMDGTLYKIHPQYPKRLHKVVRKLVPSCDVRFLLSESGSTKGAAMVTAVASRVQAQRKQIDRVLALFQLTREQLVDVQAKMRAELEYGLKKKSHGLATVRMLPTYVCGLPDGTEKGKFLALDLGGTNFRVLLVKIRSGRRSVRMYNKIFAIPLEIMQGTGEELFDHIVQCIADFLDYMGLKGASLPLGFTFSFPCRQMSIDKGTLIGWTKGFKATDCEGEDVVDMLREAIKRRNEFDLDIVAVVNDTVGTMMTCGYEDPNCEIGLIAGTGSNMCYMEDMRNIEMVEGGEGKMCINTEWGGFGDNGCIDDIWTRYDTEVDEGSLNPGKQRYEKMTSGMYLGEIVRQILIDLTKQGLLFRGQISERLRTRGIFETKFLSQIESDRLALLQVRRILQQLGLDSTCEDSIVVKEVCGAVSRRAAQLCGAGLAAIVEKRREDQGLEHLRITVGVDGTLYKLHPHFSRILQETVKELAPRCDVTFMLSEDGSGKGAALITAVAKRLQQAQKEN

[21] = target: T4, Hepatocyte nuclear factor 4-alpha (Homo sapiens, UniProt P41235); type: functional, cell-based;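 note: biochemical luminescence-based dose-response counterscreen measuring inhibition of HNF4 dimerization, run alongside a screen for blockers of ABHD5–perilipin-5 interaction; split luciferase complementation of HNF4 fusion proteins in cell lysate measuring dimerization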
T4 sequence (P41235 whole entry): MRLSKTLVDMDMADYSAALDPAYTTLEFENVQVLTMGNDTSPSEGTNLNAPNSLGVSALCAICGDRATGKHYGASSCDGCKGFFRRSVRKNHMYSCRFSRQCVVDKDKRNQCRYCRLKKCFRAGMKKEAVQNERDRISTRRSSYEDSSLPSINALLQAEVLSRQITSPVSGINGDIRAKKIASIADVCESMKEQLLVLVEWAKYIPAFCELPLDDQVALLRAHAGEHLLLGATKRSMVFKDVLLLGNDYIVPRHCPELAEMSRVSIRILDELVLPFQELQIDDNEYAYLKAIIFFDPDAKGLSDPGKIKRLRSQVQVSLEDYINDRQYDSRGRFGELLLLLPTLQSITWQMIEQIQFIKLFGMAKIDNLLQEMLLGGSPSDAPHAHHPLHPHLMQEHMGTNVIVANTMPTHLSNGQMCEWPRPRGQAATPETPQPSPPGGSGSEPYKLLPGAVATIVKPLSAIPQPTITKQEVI

[22] = target: T5, Corticotropin-releasing factor receptor 2/Corticotropin-releasing factor-binding protein (Homo sapiens, UniProt P24387+Q13324); assay: activators of CRF receptor 2 with binding protein – uHTS hits, confirmation (AID 602473); type: functional; conditions: read-out: EC50_Mean
T5 sequence (Q13324 whole entry): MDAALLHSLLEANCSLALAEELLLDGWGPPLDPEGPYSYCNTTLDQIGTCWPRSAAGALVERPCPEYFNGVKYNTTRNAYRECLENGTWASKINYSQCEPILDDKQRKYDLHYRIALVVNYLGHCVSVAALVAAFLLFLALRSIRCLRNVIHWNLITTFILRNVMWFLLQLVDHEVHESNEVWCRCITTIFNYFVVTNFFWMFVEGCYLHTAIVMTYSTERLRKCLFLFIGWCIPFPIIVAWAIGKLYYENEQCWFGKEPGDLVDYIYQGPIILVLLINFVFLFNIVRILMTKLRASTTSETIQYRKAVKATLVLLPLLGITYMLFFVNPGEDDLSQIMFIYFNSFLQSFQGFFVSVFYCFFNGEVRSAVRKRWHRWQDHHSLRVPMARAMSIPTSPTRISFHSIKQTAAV
T5 sequence (P24387 whole entry): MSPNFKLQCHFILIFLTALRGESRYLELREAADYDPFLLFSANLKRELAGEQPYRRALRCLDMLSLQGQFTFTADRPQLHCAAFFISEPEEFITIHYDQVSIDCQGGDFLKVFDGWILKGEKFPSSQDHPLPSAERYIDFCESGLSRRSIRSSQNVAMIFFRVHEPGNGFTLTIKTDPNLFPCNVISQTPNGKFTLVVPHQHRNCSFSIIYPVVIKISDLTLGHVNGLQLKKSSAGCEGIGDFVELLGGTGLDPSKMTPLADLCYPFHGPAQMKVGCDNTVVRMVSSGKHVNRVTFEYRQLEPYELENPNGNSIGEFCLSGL

[23] = HEp-2 cell cytotoxicity, dose response, cytotoxicity control for RSV inhibitor project, HTS (AID 2410); type: functional; conditions: human respiratory syncytial virus
[24] = target: Protein-tyrosine kinase 2-beta (Homo sapiens, UniProt Q14289);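 note: potency of inhibitors of PYK2 kinase phosphorylation of poly-GT substrate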
[25] = target: Bcl-2-like protein 10 (Homo sapiens, UniProt Q9HD36); assay: displacers of TR3 peptide from Bcl-B, primary screen, selectivity assay for Bfl-1 inhibitor project, biochemical, fluorescence polarization, FITC-TR3 peptide (AID 748);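 note: fluorescence polarization from a fluorescein-labelled TR3 peptide binding purified Bcl-B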
Bcl-2-like protein 10, sequence (Q9HD36 whole entry): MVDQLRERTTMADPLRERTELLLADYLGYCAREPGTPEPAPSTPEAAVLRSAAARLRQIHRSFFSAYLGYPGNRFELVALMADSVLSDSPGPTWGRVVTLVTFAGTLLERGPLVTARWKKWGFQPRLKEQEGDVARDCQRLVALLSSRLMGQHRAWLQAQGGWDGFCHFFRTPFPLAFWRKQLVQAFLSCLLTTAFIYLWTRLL

Mucolipin-3, sequence (Q8TDD5 whole entry): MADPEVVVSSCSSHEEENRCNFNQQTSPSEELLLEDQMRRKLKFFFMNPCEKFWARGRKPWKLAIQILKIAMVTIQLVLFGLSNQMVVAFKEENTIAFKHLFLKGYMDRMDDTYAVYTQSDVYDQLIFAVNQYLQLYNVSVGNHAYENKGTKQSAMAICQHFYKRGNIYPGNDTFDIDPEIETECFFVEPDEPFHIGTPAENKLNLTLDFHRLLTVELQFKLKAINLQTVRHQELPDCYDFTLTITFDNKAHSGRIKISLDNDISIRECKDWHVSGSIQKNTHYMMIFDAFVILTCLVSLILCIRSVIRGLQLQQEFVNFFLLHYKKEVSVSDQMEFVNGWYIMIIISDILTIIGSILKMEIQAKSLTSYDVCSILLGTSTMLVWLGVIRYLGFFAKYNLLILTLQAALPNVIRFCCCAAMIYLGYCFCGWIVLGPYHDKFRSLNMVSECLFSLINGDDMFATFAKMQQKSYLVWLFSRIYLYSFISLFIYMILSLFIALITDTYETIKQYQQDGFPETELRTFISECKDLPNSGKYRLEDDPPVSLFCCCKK
Neurotensin receptor type 1, sequence (P30989 whole entry): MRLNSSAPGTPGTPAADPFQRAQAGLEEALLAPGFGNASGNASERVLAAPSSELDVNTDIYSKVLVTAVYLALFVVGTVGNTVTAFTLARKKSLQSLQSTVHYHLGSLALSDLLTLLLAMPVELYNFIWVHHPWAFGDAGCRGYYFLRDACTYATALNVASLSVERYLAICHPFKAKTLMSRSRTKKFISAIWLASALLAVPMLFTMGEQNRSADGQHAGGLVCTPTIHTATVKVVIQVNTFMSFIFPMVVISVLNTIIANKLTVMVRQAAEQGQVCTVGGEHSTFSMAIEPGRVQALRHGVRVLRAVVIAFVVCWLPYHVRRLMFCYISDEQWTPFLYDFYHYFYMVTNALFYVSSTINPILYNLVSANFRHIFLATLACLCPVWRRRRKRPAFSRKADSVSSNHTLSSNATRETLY
Ion channel NompC, sequence (Q7T1G6 whole entry): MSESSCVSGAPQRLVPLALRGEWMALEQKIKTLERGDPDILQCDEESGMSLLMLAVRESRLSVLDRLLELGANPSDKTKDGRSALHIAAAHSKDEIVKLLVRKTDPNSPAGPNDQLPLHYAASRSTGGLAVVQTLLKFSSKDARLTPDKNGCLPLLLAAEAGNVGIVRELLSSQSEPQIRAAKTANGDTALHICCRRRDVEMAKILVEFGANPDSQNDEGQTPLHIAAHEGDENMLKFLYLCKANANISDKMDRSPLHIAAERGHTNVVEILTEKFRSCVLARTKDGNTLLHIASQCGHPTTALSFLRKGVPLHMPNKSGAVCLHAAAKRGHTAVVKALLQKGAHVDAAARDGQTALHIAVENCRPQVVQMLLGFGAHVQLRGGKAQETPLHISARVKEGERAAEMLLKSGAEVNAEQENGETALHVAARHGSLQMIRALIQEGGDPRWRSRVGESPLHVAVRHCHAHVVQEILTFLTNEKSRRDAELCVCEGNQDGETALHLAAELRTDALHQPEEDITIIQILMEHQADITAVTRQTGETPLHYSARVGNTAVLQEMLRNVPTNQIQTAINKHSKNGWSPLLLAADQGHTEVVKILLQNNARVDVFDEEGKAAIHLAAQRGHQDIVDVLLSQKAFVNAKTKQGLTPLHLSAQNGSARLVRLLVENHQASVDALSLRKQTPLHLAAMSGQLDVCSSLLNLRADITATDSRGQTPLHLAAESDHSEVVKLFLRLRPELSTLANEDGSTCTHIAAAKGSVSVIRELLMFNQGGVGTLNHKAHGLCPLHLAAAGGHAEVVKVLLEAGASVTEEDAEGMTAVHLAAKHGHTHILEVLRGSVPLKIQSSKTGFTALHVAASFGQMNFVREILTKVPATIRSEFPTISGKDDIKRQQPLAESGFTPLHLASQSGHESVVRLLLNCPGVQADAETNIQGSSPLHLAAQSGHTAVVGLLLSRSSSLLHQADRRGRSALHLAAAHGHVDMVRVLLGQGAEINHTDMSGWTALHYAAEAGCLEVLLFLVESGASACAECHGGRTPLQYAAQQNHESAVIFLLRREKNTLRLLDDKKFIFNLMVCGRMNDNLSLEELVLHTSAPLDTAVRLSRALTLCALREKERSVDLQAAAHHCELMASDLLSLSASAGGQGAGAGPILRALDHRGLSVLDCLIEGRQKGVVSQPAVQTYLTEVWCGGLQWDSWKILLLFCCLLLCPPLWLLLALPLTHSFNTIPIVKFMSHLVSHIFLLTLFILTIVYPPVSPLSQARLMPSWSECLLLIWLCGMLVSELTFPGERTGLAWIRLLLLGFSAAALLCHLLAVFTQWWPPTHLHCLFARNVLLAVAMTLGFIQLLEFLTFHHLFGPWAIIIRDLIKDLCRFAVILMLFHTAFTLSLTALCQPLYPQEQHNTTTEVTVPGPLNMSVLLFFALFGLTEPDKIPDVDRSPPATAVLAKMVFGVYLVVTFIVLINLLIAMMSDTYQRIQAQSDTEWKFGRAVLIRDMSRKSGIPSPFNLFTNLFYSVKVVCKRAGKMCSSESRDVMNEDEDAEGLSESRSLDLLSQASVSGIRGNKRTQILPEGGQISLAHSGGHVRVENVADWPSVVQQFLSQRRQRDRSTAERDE
Cytochrome P450 2C9, sequence (P11712 whole entry): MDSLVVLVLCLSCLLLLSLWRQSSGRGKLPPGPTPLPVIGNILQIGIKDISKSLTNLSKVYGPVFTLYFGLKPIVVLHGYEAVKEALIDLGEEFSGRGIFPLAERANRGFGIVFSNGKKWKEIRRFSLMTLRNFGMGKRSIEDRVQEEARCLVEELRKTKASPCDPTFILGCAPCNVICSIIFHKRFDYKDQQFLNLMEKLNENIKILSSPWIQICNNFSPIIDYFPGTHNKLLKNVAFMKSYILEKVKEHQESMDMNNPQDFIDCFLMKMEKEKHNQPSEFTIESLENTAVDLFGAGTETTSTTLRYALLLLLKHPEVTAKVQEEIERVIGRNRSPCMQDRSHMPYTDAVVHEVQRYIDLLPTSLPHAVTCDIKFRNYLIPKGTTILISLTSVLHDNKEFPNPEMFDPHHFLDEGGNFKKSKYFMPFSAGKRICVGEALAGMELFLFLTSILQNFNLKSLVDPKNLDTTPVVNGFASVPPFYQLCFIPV
Luciferin 4-monooxygenase, sequence (P08659 whole entry): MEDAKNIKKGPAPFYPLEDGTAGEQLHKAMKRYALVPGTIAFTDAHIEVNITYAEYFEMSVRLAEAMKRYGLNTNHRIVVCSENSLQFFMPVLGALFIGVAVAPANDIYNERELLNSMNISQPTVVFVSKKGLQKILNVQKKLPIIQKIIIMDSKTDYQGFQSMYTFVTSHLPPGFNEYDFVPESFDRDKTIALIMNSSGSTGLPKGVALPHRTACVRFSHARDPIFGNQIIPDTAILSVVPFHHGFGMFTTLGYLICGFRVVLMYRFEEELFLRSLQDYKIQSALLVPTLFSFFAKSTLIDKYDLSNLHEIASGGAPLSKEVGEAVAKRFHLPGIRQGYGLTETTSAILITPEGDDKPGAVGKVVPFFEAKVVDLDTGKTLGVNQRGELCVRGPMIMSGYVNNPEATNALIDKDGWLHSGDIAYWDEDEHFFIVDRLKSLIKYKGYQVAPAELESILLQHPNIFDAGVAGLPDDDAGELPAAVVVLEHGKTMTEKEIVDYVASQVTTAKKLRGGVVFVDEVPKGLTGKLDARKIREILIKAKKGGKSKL
X-box-binding protein 1, sequence (P17861 whole entry): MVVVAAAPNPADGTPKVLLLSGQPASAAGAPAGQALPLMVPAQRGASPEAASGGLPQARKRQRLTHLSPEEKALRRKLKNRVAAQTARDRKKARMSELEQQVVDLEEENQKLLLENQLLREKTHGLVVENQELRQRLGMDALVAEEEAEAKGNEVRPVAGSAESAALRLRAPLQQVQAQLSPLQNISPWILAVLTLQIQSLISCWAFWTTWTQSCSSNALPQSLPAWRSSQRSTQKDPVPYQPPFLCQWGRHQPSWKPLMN
Glucose-6-phosphate 1-dehydrogenase, sequence (P11413 whole entry): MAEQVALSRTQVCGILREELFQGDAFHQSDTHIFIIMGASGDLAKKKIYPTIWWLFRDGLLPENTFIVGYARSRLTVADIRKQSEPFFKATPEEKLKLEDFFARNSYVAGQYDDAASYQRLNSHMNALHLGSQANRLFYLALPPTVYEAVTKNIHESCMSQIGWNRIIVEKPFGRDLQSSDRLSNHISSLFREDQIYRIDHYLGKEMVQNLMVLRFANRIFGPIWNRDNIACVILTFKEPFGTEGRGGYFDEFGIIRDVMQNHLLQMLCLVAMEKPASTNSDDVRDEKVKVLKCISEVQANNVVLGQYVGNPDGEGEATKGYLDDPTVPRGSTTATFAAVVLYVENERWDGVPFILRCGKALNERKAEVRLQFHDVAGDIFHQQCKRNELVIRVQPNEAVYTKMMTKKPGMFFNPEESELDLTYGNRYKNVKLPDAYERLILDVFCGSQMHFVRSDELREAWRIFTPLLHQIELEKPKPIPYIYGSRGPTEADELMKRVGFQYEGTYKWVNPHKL

COc1ccc(OC)c(N/C=C/C(=O)c2ccccc2)c1
EC50 [1]: 6.32 µM (inconclusive) | EC50 [2]: 1.35 µM (active) | EC50 [3]: 0.476 µM (inconclusive) | EC50 [4]: 3.8 µM (active) | EC50 [5]: 0.276 µM (active) | EC50 [6]: 0.982 µM (active) | IC50 [7]: > 39.8 µM (not active)

CC(C)C[C@@H](CC(=O)N[C@@H](CCC(=O)O)CC(=O)O)NC(=O)[C@@H]1CCCC[C@H]1NC(=O)C[C@@H](NC(=O)C[C@H](CO)NC(=O)[C@@H]1CCCC[C@H]1N)C(C)C
AC50 [8]: 20 µM (inconclusive)

CCCCC1=NN2C(=N)/C(=C/c3c[nH]c4ccccc34)C(=O)N=C2S1
IC50 [9]: 61.7 µM (active)

O=C(c1ccc(F)cc1)N1CCN2C(=O)c3ccccc3C12c1ccccc1 (centres undefined)
IC50 [10]: 31.2 µM (active)

Cc1cc(Cl)ccc1C(=O)C1CCCN(C(=O)c2snnc2C)C1 (centres undefined)
EC50 [11]: > 120 µM (not active)

COC(=O)C(Nc1ccccc1Cl)(c1cc(C)c(O)c(C)c1)C(F)(F)F (centres undefined)
EC50 [12]: 1.58 µM (active) | EC50 [13]: 17.2 µM (active) | EC50 [14]: 9.48 µM (active) | Absolute IC50 (XBP1) [15]: < 10 µM

COc1ccc(-n2ncc3c(N4CCN(Cc5ccccc5)CC4)ncnc32)cc1
EC50 [16]: 35.9 µM (inactive)

COC(=O)COc1ccc(/C=N/NC(=O)CN(c2ccccc2OC)S(=O)(=O)c2ccccc2)cc1
EC50 [16]: 6.65 µM (active)

COc1ccc(N2C(=O)C(F)(F)C2c2ccccc2F)cc1 (centres undefined)
EC50 [17]: 3.96 µM (active) | EC50 [18]: > 29.9 µM (not active)

Cc1ccc(SC2=C(Sc3ccc(C)cc3)C(=O)c3ccccc3C2=O)cc1
IC50 [19]: > 80 µM (inactive) | IC50 [20]: 15.9 µM (active) | IC50 [21]: 1.38 µM (active)

Cc1cccc(C)c1Nc1nc2ccccc2o1
IC50 [9]: 26.7 µM (active)

COc1ccccc1N(CC(=O)N1CCCCC1)S(=O)(=O)c1ccccc1
EC50 [17]: 0.59 µM (active) | EC50 [18]: 12.4 µM (not active) | EC50 [22]: 8.61 µM (active)

Cc1cc(Cl)cc(C)c1OCCn1ccnc1
CC50 [23]: 33.5 µM (active) | IC50 [10]: 32.9 µM (active)

CC(=O)OCC1OC(C#Cc2ccc(C(C)(C)C)cc2)C=CC1OC(C)=O (centres undefined)
AC50 [8]: 6.31 µM (inconclusive)

COc1cc(/N=C/c2c(O)[nH]c3ccccc23)cc(OC)c1OC
EC50 [1]: < 0.1 µM (active) | EC50 [4]: 0.108 µM (active) | IC50 [7]: > 39.8 µM (not active) | IC50 [24]: 3.15 µM (active)

O=c1c([N+](=O)[O-])cc(C(F)(F)F)cn1Cc1cccc(Cl)c1
IC50 [25]: > 100 µM (inactive)

From ChEMBL document CHEMBL1201862, “PubChem BioAssay data set” (2004)
